Source: patent publication US11298314B2, “Injectable composition for localized fat reduction without pain, edema, and side effects, and method for preparing same” (AMI PHARM CO., LTD., priority 2017, dated 2022)
“Also recorded” adds a separate entry of the source.

Legend:
[1] = system: sole of the rat paws; assay: Measurement of skin lesion (erythema) on rat paw; type: in vivo, Sprague Dawley rats; settings: for skin lesion (erythema) in words: 2 hours after administration;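 for grade of skin lesion (erythema), 1 hour after administration: grades − to ++++ mean no to extremely severe erythema versus before injection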;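 for grade of skin lesion (erythema), 2 hours after administration: grades − to ++++ mean no to extremely severe erythema versus before injection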;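 for grade of skin lesion (erythema), Immediately after administration: grades − to ++++ mean no to extremely severe erythema versus before injection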
How it was run: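 Male Sprague Dawley rats (6 weeks, 170–200 g) received 0.1 ml test composition or PBS injected into the paw. Paw thickness measured by caliper before, immediately after, and 1 or 2 h post-injection; sole lesions photographed and graded 0–4.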

[2] = system: paw of the rats; assay: Rat paw edema; type: in vivo, Sprague Dawley rats; settings: for degree of edema in words: 2 hours after administration, rat paw; for degree of edema, 1 hour after administration / degree of edema, 2 hours after administration / degree of edema, Immediately after administration: 0.1 ml into rat paw
How it was run: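 Male Sprague Dawley rats (6 weeks old, 170–200 g) received 0.1 ml of PBS or test composition into the paw. Paw thickness measured by caliper before, immediately after, and 1 or 2 h post-injection; edema graded 0–4, with injection-site skin lesions photographed.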

[3] = system: 3T3-L1 adipocytes; assay: Lipolysis assay (glycerol release); type: cell-based; settings: 48 hours; listed as GCA single
Procedure: The glycerol activity assay was performed with the test materials to determine whether the cell death in the MTT assay was due to necrosis or lipolysis. Glycerol is a specific marker that increases when fat breaks down. Abcam Lipolysis Assay Kit (Colorimetric) was used according to the manufacturer's manual, and the method of the test was as follows: […] And then the lysis was induced. […] After adding the glycerol assay complex (50 μl) thereto, the solution was incubated at room temperature for 30 minutes. Absorbance was measured at OD 570 (using standard curve for absolute determination).

[4] = system: tissues of the injected area (rat paw); assay: H&E staining histological test (inflammation) of injected rat paw; type: in vivo, Sprague Dawley rats; settings: for degree of inflammation (H&E) in words: rats sacrificed at 3 hours, injected paw
Procedure: The tissues of the injected area were dissected, fixed with 10% formalin, and then the specimen was prepared and images were captured using an optical microscope. The degree of inflammation was evaluated as follows.

[5] = system: inguinal fat pad; settings: 0.2 ml s.c. once into inguinal fat pad, 8 days post-injection
[6] = system: 3T3-L1 adipocytes; assay: Adipocyte (3T3-L1) reducing effect, MTT assay; type: cell-based
Procedure: Tests were performed to compare the adipocyte reducing activity of the PPC single composition and the PPC composition solubilized with bile acids. Differentiated 3T3L-1 adipocyte lines were used to observe adipocyte reduction activity, and cell viability was monitored by MTT assay. […] Materials and methods employed in the following experiments are described below. In the following, % of the composition refers to % (w/v).
The specific test methods are as follows. […] The cells were washed twice with PBS, treated with MTT reagent (50 μl) and left at 37° C. for 2 hours. After removing the supernatant, MTT formazan crystals were dissolved in DMSO and the absorbance was measured at 540 nm using a microplate reader.
The 3T3-L1 adipocyte (ATCC) was cultured in Dulbecco's modified eagle medium (DMEM) (Invitrogen) supplemented with 10% fetal bovine serum, 100 units/ml penicillin and 100 μg/ml streptomycin under the condition of 5% CO2 and 37° C. […] Subsequently, the medium was replaced with DMEM medium containing 1 μg/ml insulin (Sigma), and the culture medium was maintained and changed every 2 to 3 days until the degree of differentiation reaches maximum. If it took more than 7 days, the cells were kept in normal DMEM culture medium until starting the tests. […] After the cells were incubated for 3 hours under the condition of 37° C. and 5% CO2, the MTT solution was removed.

[7] = system: Caspase 3 in 3T3-L1 adipocytes; assay: Caspase 3 activity assay; type: cell-based; settings: 0-48 hours
Procedure: The Caspase 3 activity assay was performed with the test materials to determine whether the cell death in the result of MTT assay was due to necrosis or apoptosis. The Caspase 3 specifically increases when apoptosis occurs and is a marker of apoptosis. […] The cells were then treated with 50 ul of cell lysis buffer (10 mM Tris-HCl, 10 mM NaH2PO4/NaHPO4, pH 7.5, 130 mM NaCl, 1% Triton X-100 and 10 mM sodium pyrophosphate) and left at 4° C. for […]. The supernatant was collected by centrifugation at 1000× rpm for 1 minute, and protein quantification was performed by BCA method. The 50 μl of reaction buffer (4 mM HEPES, pH 7.5, 10% glycerol, 2 mM dithiothreitol) and 0.5 μl of 4 mM DEVD-p-NA were added to each sample and reacted at 37° C. for 1 hour. Then wavelength was measured with a […] at 405 nm.

[8] = Formulation stability of PPC injectable preparations: property, transparency, particle size, pH
Procedure: The particle size was measured using a nano particle size analyzer (Microtrac Wave, MICROTRACT, USA). […] The transparency was measured using a spectrophotometer (CM-3600d, KONICA MINOLTA, JAPAN). The pH was measured with a pH meter (ST3100, OHAUS, GERMANY), and the isotonicity was measured with an osmotic pressure meter (Vapro 5600, Elitech Group, Tokyo, Japan), and viscosity was analyzed using a viscometer (Digital Viscometer CL-2, CAS, Korea).
The washed and sterilized preparation tank was charged with the water for injection (at room temperature), and phosphatidylcholine (PPC) and benzyl alcohol were added thereto, and the mixture was stirred at 200 RPM for 2 hours under the condition of nitrogen pressure, shading and room temperature. After the completion of stirring, the mixture was transferred to an ultra-high pressure homogenizer (Nano Disperser NLM100, Ilshin Autoclave, Korea) with a nitrogen pressure. Ultra-high pressure homogenization (dispersion) was carried out at 12,000 psi for 7 cycles, and the particles were finely pulverized. Then, the pH was adjusted. After filtration through a 0.2 μm filter, the vial was filled and sealed.
Specifically, the water for injection was put into the preparation tank which was cleaned and sterilized (room temperature), and sodium hydroxide was added to the water for injection. Then deoxycholic acid and benzyl alcohol were added, stirred and dissolved. Then, phosphatidylcholine was added thereto, and the mixture was stirred at 200 RPM for about 24 hours under shading, sealing, room temperature (25° C.), and nitrogen pressure. After completion of the stirring, the pH was adjusted (if necessary, with additional sodium hydroxide or hydrochloric acid), and it was filtered through a 0.2 μm filter, and filled into the vial and sealed.
Then glycocholic acid and benzyl alcohol were added, stirred and dissolved. Then, phosphatidylcholine was added thereto, and the mixture was stirred at 200 RPM for about 24 hours under shading, sealing, room temperature (25° C.), and nitrogen pressure. After completion of the stirring, the pH was adjusted (if necessary, with additional sodium hydroxide or 0.001-0.6% of hydrochloric acid), and it was filtered through a 0.2 μm filter, and filled into the vial and sealed.
The formulation stability of the PPC injectable compositions solubilized with glycocholic acid (GCA) in Tables 3 and 4 was evaluated immediately after the preparation and 30 days after the preparation (refrigerated storage).

[9] = bile acid single composition 1.0% (w/v)
[10] = bile acid single composition 2.5% (w/v)
[11] = bile acid single composition 5.0% (w/v)
[12] = bile acid single composition 7.5% (w/v)

SMILES: C[C@H](CCC(=O)NCC(=O)O)[C@H]1CC[C@H]2[C@@H]3[C@H](O)C[C@@H]4C[C@H](O)CC[C@]4(C)[C@H]3C[C@H](O)[C@]12C [GCA, 2-[[(4R)-4-[(3R,5S,7R,8R,9S,10S,12S,13R,14S,17R)-3,7,12-trihydroxy-10,13-dimethyl-2,3,4,5,6,7,8,9,11,12,14,15,16,17-tetradecahydro-1H-cyclopenta[a]phenanthren-17-yl]pentanoyl]amino]acetic acid]
- skin lesion (erythema) in words ([1]; listed as GCA 1.0%): None
- skin lesion (erythema) in words ([1]; listed as GCA 2.5%): Mild
- skin lesion (erythema) in words ([1]; listed as GCA 5.0%): Mild
- skin lesion (erythema) in words ([1]; listed as GCA 7.5%): Moderate
- grade of skin lesion (erythema), 1 hour after administration [1, 9]: −
- grade of skin lesion (erythema), 2 hours after administration [1, 9]: −
- grade of skin lesion (erythema), Immediately after administration [1, 9]: −
- grade of skin lesion (erythema), 1 hour after administration [1, 10]: +
- grade of skin lesion (erythema), 2 hours after administration [1, 10]: +
- grade of skin lesion (erythema), Immediately after administration [1, 10]: +
- grade of skin lesion (erythema), 1 hour after administration [1, 11]: +
- grade of skin lesion (erythema), 2 hours after administration [1, 11]: +
- grade of skin lesion (erythema), Immediately after administration [1, 11]: +
- grade of skin lesion (erythema), 1 hour after administration [1, 12]: ++
- grade of skin lesion (erythema), 2 hours after administration [1, 12]: ++
- grade of skin lesion (erythema), Immediately after administration [1, 12]: +
- degree of edema in words ([2]; listed as GCA 1.0%): Mild and mild
- degree of edema in words ([2]; listed as GCA 2.5%): moderate
- degree of edema in words ([2]; listed as GCA 5.0%): Moderate
- degree of edema, 1 hour after administration [2, 9]: + (mild edema [+, (the degree of swelling was 1-20% compared to before the injection)])
- degree of edema, 2 hours after administration [2, 9]: + (mild edema [+, (the degree of swelling was 1-20% compared to before the injection)])
- degree of edema, Immediately after administration [2, 9]: + (mild edema [+, (the degree of swelling was 1-20% compared to before the injection)])
- degree of edema, 1 hour after administration [2, 10]: ++ (moderate edema [++, (the degree of swelling was 20-40% compared to before the injection)])
- degree of edema, 2 hours after administration [2, 10]: ++ (moderate edema [++, (the degree of swelling was 20-40% compared to before the injection)])
- degree of edema, Immediately after administration [2, 10]: ++ (moderate edema [++, (the degree of swelling was 20-40% compared to before the injection)])
- degree of edema, 1 hour after administration [2, 11]: ++ (moderate edema [++, (the degree of swelling was 20-40% compared to before the injection)])
- degree of edema, 2 hours after administration [2, 11]: ++ (moderate edema [++, (the degree of swelling was 20-40% compared to before the injection)])
- degree of edema, Immediately after administration [2, 11]: ++ (moderate edema [++, (the degree of swelling was 20-40% compared to before the injection)])
- degree of edema, 1 hour after administration [2, 12]: ++++ (extremely severe edema [++++, (the degree of swelling was 60% or more compared to before the injection)])
- degree of edema, 2 hours after administration [2, 12]: ++++ (extremely severe edema [++++, (the degree of swelling was 60% or more compared to before the injection)])
- degree of edema, Immediately after administration [2, 12]: ++ (moderate edema [++, (the degree of swelling was 20-40% compared to before the injection)])
- glycerol release / cytolytic activity [3]: slightly higher cytolytic activity than at 24 hours; also recorded: slightly higher cytolytic activity than that of 24 hours
- Inflammation (H&E), BA % (w/v) 1.0 ([4]; bile acid single composition 1.0% (w/v), injected rat paw): +
- Inflammation (H&E), BA % (w/v) 2.5 ([4]; bile acid single composition 2.5% (w/v), injected rat paw): ++
- Inflammation (H&E), BA % (w/v) 5.0 ([4]; bile acid single composition 5.0% (w/v), injected rat paw): ++
- Inflammation (H&E), BA % (w/v) 7.5 ([4]; bile acid single composition 7.5% (w/v), injected rat paw): ++
- degree of inflammation (H&E) in words ([4]; listed as GCA 1.0%): Mild
- degree of inflammation (H&E) in words ([4]; listed as GCA 2.5%): moderate
- histological change of adipocytes in fat tissue [5]: clear cell membrane boundary and a well-formed cell shape
- inflammation at the site of administration, dermal and epidermal tissues [5]: inflammation was clearly observed
- adipocyte viability / adipocyte-reducing activity ([6]; 24 to 96 hours, various concentrations): reduced adipocyte viability in time and concentration dependent manner
- adipocyte-reducing effect at the same PPC concentration ([6]; after 96 hours, FIGS. 7F to 7H): lower adipocyte-reducing effect than PPC+GCA
- caspase-3 activity [7]: no time or concentration-dependent change
- minimum molar ratio to PPC for a clear solution and mixed micelle of 10 nm or less [8]: 0.76
- bile acid concentration at which stable injectable preparations can be made ([8]; based on PPC 5.0%): ≥ 2.2%
